Source: patent US20080214658A1, “Composition Comprising Isoorientin for Suppressing Histamine” (UNIGEN, INC., priority 2005, published 2008)

Test system: guinea pig lung mast cells
Test: Histamine release from passively sensitized (anti-OVA antibody) lung mast cells activated by OVA
Assay type: cell-based
Settings: for Histamine (%) (amount of histamine released as percentage of the total histamine content) / inhibition % of histamine release: 4 × 10^5 mast cells, added 5 min before 1.0 μg/ml OVA challenge; for inhibition % of histamine release: vs OVA alone
Description: In each enzyme treatment, the lung tissues were filtered with nylon mesh and metal mesh (100 μm), and centrifuged (called as monodispersed mast cells). Pellets were suspended in 16 ml of buffer (TG buffer) containing Ca^2+, Mg^2+-free, and 0.1% gelatin, loaded to rough Percoll ([…] density), and centrifuged at 1,400 rpm for 25 minutes to give pellets. The cells were suspended again in 8 ml of TG buffer, loaded to discontinuous Percoll ([…] density), and centrifuged again at 1400 rpm for 25 minutes to afford various kinds of cell layers. Among them, mast cells were mainly present in 3rd or 4th layer, and so cells obtained from these layers were washed with TGCM buffer twice. […] Mast cells (4×10^5 cells) were treated with guinea pig IgG1 antibody (anti-OVA 1 ml/10^6 cells), reacted at 37° C. for 45 minutes, and then washed with TGCM buffer to remove anti-OVA antibody which was not bound to mast cells membrane. The cells were suspended in 1 ml of TGCM buffer, and treated with drug (testing substance) at each concentration for 5 minutes. The suspension was […] with 1.0 μg/ml OVA (ovalbumin), reacted for 10 minutes, cooled at ice, and centrifuged. After the centrifuge, histamine in supernatant was measured. […] The amount of histamine contained in each sample was calculated as percentage against the amount of histamine contained in total cells used, as follows. [formula]

SMILES: O=c1cc(-c2ccc(O)c(O)c2)oc2cc(O)c([C@@H]3O[C@H](CO)[C@@H](O)[C@H](O)[C@H]3O)c(O)c12 [Isoorientin, isoorientin]
- IC50 (Cavia porcellus, Mast cell, guinea pig lung mast cells, anti-OVA sensitized, OVA challenge, read-out: IC50 value, inhibition of histamine release in mast cells): 30 µg/mL
- Histamine (%) (amount of histamine released as percentage of the total histamine content) (sample 1.25 μg): 27.9 ± 2.62%
- inhibition % of histamine release (sample 1.25 μg): 14%
- Histamine (%) (amount of histamine released as percentage of the total histamine content) (sample 2.5 μg): 25.6 ± 1.49%
- inhibition % of histamine release (sample 2.5 μg): 21.3%
- Histamine (%) (amount of histamine released as percentage of the total histamine content) (sample 5 μg): 21.9 ± 2.01%
- inhibition % of histamine release (sample 5 μg): 32.6%
- Histamine (%) (amount of histamine released as percentage of the total histamine content) (sample 10 μg): 17.2 ± 1.07%
- inhibition % of histamine release (sample 10 μg): 47.2%
